Laboratory results from patent US12077503B2, “Substituted cyclic amides and their use as herbicides” (FMC CORPORATION, priority 2015, dated 2024).

How the values were obtained:
Type in all cases: in vivo
Kochia (Kochia scoparia) [1] = experiment: Test A preemergence
Outline: (§1)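 Ratings of 0 (no effect) to 100 (complete control) come from visual comparison with untreated controls roughly 10 d after treatment. Test chemicals, formulated in a non-phytotoxic solvent mixture with surfactant, were applied either as a preemergence directed soil spray on seeded soil or postemergence to one- to two-leaf plants 2 to 10 cm tall.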

[2] = system: barnyardgrass (Echinochloa crus-galli); experiment: Test A preemergence
Outline: as §1

[3] = system: giant foxtail (Setaria faberii); experiment: Test A preemergence
Outline: as §1

[4] = system: pigweed (Amaranthus retroflexus); experiment: Test A preemergence
[5] = system: ragweed (common ragweed, Ambrosia elatior); experiment: Test A preemergence
Outline: as §1

[6] = system: ryegrass, Italian (Italian ryegrass, Lolium multiflorum); experiment: Test A preemergence
Outline: as §1

[7] = system: Galium (catchweed bedstraw, Galium aparine); experiment: Test A postemergence
Outline: as §1

Kochia (Kochia scoparia) [8] = experiment: Test A postemergence
Outline: as §1

[9] = system: barnyardgrass (Echinochloa crus-galli); experiment: Test A postemergence
Outline: as §1

[10] = system: blackgrass (Alopecurus myosuroides); experiment: Test A postemergence
Outline: as §1

corn (Zea mays) = experiment: Test A postemergence
Outline: as §1

[11] = system: giant foxtail (Setaria faberii); experiment: Test A postemergence
Outline: as §1

[12] = system: pigweed (Amaranthus retroflexus); experiment: Test A postemergence
Outline: as §1

[13] = system: ragweed (common ragweed, Ambrosia elatior); experiment: Test A postemergence
Outline: as §1

[14] = system: ryegrass, Italian (Italian ryegrass, Lolium multiflorum); experiment: Test A postemergence
Outline: as §1

[15] = system: wheat (Triticum aestivum); experiment: Test A postemergence
Outline: as §1

[16] = system: barnyardgrass (Echinochloa crus-galli); experiment: Test B flooded paddy test; conditions: Flood, 250 g ai/ha; 0 to 100 scale where 0 is no effect and 100 is complete control; 13 to 15 d
Outline: (§2)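 Rating scale 0–100 (visual, vs untreated controls) after a 13–15 d greenhouse period; application to the flood layer, 3 cm above soil and maintained; plants at 2-leaf stage when treated.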

[17] = system: ducksalad (Heteranthera limosa); experiment: Test B flooded paddy test; conditions: Flood, 250 g ai/ha; 0 to 100 scale where 0 is no effect and 100 is complete control; 13 to 15 d
Outline: as §2

rice (Oryra sativa) = experiment: Test B flooded paddy test; conditions: Flood, 250 g ai/ha; 0 to 100 scale where 0 is no effect and 100 is complete control; 13 to 15 d
Outline: as §2

[18] = system: sedge, umbrella (small-flower umbrella sedge, Cyperus difformis); experiment: Test B flooded paddy test; conditions: Flood, 250 g ai/ha; 0 to 100 scale where 0 is no effect and 100 is complete control; 13 to 15 d
Outline: as §2

[19] = 125 g ai/ha, preemergence, 0 to 100 scale (0 no effect, 100 complete control)
[20] = Preemergence, 500 g ai/ha, 0 is no effect, 100 is complete control
[21] = 500 g ai/ha, postemergence, 0 to 100 scale, 0 no effect, 100 complete control
[22] = Postemergence, 125 g ai/ha, visual injury, 0 to 100 scale (0 no effect, 100 complete control), approx. 10 d
[23] = 125 g ai/ha, Preemergence, visual injury after approximately 10 d, 0 to 100 scale where 0 is no effect and 100 is complete control
[24] = Preemergence, 500 g ai/ha, visual injury approx. 10 d
[25] = 125 g ai/ha, postemergence, visual rating after approx. 10 d, 0 to 100 scale (0 no effect, 100 complete control)
[26] = Postemergence, 500 g ai/ha, 0 to 100 scale where 0 is no effect and 100 is complete control
[27] = 500 g ai/ha, preemergence, 0 to 100 scale, 0 = no effect, 100 = complete control

Cc1cccc(C2CNC(=O)C2C(=O)Nc2ccccc2F)c1 (racemic) [Compound 372]
0: Plant response rating, Kochia (Kochia (Kochia scoparia) [1]; [19]) | Kochia plant response rating (0 to 100 scale) (Kochia (Kochia scoparia) [1]; [20]) | Plant response rating, Pigweed [4, 19] | Plant response rating, Ragweed [5, 19] | Plant response rating, Ryegrass, Italian [6, 19] | Plant response rating, Galium [7, 22] | Plant response rating, Kochia (Kochia (Kochia scoparia) [8]; [22]) | Plant response rating, Corn (corn (Zea mays); [22]) | Plant response rating, Ragweed [13, 21] | Plant response rating, Ragweed [13, 22] | Plant response rating, Wheat [15, 22] | Plant response rating, Sedge, Umbrella [18]
35: Plant response rating, Rice (rice (Oryra sativa))
20: Plant response rating, Galium [7, 21] | Plant response rating, Blackgrass [10, 22] | Plant response rating, Corn (corn (Zea mays); [21]) | Plant response rating, Pigweed [12, 22] | Plant response rating, Ryegrass, Italian [14, 22] | Plant response rating, Wheat [15, 21]
100: Plant response rating, Ducksalad [17]
30: Ragweed plant response rating (0 to 100 scale) [5, 20] | Ryegrass, Italian plant response rating (0 to 100 scale) [6, 20] | Plant response rating, Blackgrass [10, 21] | Plant response rating, Pigweed [12, 21]
80: Plant response rating, Foxtail, Giant [3, 19] | Plant response rating, Barnyardgrass [9, 21] | Plant response rating, Barnyardgrass [9, 22]
70: Plant response rating, Foxtail, Giant [11, 21]
90: Plant response rating, Barnyardgrass [2, 19] | Barnyardgrass plant response rating (0 to 100 scale) [2, 20] | Foxtail, Giant plant response rating (0 to 100 scale) [3, 20]
50: Pigweed plant response rating (0 to 100 scale) [4, 20] | Plant response rating, Foxtail, Giant [11, 22]
40: Plant response rating, Kochia (Kochia (Kochia scoparia) [8]; [21]) | Plant response rating, Ryegrass, Italian [14, 21]
60: Plant response rating, Barnyardgrass [16]

O=C1NCC(c2ccsc2Cl)C1C(=O)Nc1cccc(F)c1F (stereo not drawn) [Compound 600]
20: Kochia plant response rating (0 to 100 scale, 0 is no effect, 100 is complete control) (Kochia (Kochia scoparia) [1]; [24])
0: Plant response rating, Kochia (Kochia (Kochia scoparia) [1]; [23]) | Plant response rating, Pigweed [4, 23] | Pigweed plant response rating (0 to 100 scale, 0 is no effect, 100 is complete control) [4, 24] | Plant response rating, Ragweed [5, 23] | Ragweed plant response rating (0 to 100 scale, 0 is no effect, 100 is complete control) [5, 24] | Plant response rating, Ryegrass, Italian [6, 23] | Ryegrass, Italian plant response rating (0 to 100 scale, 0 is no effect, 100 is complete control) [6, 24] | Plant response rating, Galium [7, 25] | Plant response rating, Galium [7, 26] | Plant response rating, Kochia (Kochia (Kochia scoparia) [8]; [25]) | Plant response rating, Kochia (Kochia (Kochia scoparia) [8]; [26]) | Plant response rating, Barnyardgrass [9, 25] | Plant response rating, Blackgrass [10, 25] | Plant response rating, Blackgrass [10, 26] | Plant response rating, Corn (corn (Zea mays); [25]) | Plant response rating, Corn (corn (Zea mays); [26]) | Plant response rating, Foxtail, Giant [11, 25] | Plant response rating, Pigweed [12, 25] | Plant response rating, Pigweed [12, 26] | Plant response rating, Ragweed [13, 25] | Plant response rating, Ragweed [13, 26] | Plant response rating, Ryegrass, Italian [14, 25] | Plant response rating, Ryegrass, Italian [14, 26] | Plant response rating, Wheat [15, 25] | Plant response rating, Wheat [15, 26] | Plant response rating, Barnyardgrass [16] | Plant response rating, Sedge, Umbrella [18]
15: Plant response rating, Rice (rice (Oryra sativa))
30: Plant response rating, Barnyardgrass [2, 23] | Plant response rating, Foxtail, Giant [3, 23] | Plant response rating, Foxtail, Giant [11, 26]
85: Plant response rating, Ducksalad [17]
90: Barnyardgrass plant response rating (0 to 100 scale, 0 is no effect, 100 is complete control) [2, 24] | Foxtail, Giant plant response rating (0 to 100 scale, 0 is no effect, 100 is complete control) [3, 24] | Plant response rating, Barnyardgrass [9, 26]

CN1CC(c2cccc(OC(F)F)c2)C(C)(C(=O)Nc2cccc(F)c2F)C1=O (stereo not drawn) [Compound 619]
20: Plant response rating, Kochia (Kochia (Kochia scoparia) [1]; [23]) | Plant response rating, Kochia (Kochia (Kochia scoparia) [1]; [27])
0: Plant response rating, Barnyardgrass [2, 23] | Plant response rating, Barnyardgrass [2, 27] | Plant response rating, Foxtail, Giant [3, 23] | Plant response rating, Foxtail, Giant [3, 27] | Plant response rating, Pigweed [4, 23] | Plant response rating, Pigweed [4, 27] | Plant response rating, Ragweed [5, 23] | Plant response rating, Ragweed [5, 27] | Plant response rating, Ryegrass, Italian [6, 23] | Plant response rating, Ryegrass, Italian [6, 27] | Plant response rating, Galium [7, 25] | Plant response rating, Galium [7, 26] | Plant response rating, Kochia (Kochia (Kochia scoparia) [8]; [25]) | Plant response rating, Kochia (Kochia (Kochia scoparia) [8]; [26]) | Plant response rating, Barnyardgrass [9, 25] | Plant response rating, Barnyardgrass [9, 26] | Plant response rating, Blackgrass [10, 25] | Plant response rating, Blackgrass [10, 26] | Plant response rating, Corn (corn (Zea mays); [25]) | Plant response rating, Corn (corn (Zea mays); [26]) | Plant response rating, Foxtail, Giant [11, 25] | Plant response rating, Foxtail, Giant [11, 26] | Plant response rating, Pigweed [12, 25] | Plant response rating, Pigweed [12, 26] | Plant response rating, Ragweed [13, 25] | Plant response rating, Ragweed [13, 26] | Plant response rating, Ryegrass, Italian [14, 25] | Plant response rating, Ryegrass, Italian [14, 26] | Plant response rating, Wheat [15, 25] | Plant response rating, Wheat [15, 26] | Plant response rating, Barnyardgrass [16] | Plant response rating, Ducksalad [17] | Plant response rating, Rice (rice (Oryra sativa)) | Plant response rating, Sedge, Umbrella [18]
